Source: PubChem BioAssay (NCI)
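Method: 48-hour compound exposure of cells in 96-well plates, five concentrations, linear interpolation of endpoints. The concentration for 50% growth inhibition is given as GI50. The concentration for full growth arrest is given as TGI.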

Assays:
Experiment in all cases: NCI tumour cell line growth inhibition, 48 h
SN12C renal = system: SN12C renal
DU-145 prostate = system: DU-145 prostate
MDA-MB-231 breast = system: MDA-MB-231 breast
HOP-62 NSCLC = system: HOP-62 NSCLC
UACC-62 melanoma = system: UACC-62 melanoma
A498 renal = system: A498 renal
HT29 colon = system: HT29 colon
EKVX NSCLC = system: EKVX NSCLC
U251 CNS = system: U251 CNS
SK-MEL-28 melanoma = system: SK-MEL-28 melanoma
K-562 leukemia = system: K-562 leukemia
M14 melanoma = system: M14 melanoma
HL-60(TB) leukemia = system: HL-60(TB) leukemia
SF-539 CNS = system: SF-539 CNS
CAKI-1 renal = system: CAKI-1 renal
KM12 colon = system: KM12 colon
ACHN renal = system: ACHN renal
SF-268 CNS = system: SF-268 CNS
SF-295 CNS = system: SF-295 CNS
SNB-75 CNS = system: SNB-75 CNS
T-47D breast = system: T-47D breast
UACC-257 melanoma = system: UACC-257 melanoma
HCT-15 colon = system: HCT-15 colon
SK-OV-3 ovarian = system: SK-OV-3 ovarian
UO-31 renal = system: UO-31 renal
SK-MEL-2 melanoma = system: SK-MEL-2 melanoma
MCF7 breast = system: MCF7 breast
NCI/ADR-RES ovarian = system: NCI/ADR-RES ovarian
LOX IMVI melanoma = system: LOX IMVI melanoma
SR leukemia = system: SR leukemia
CCRF-CEM leukemia = system: CCRF-CEM leukemia
NCI-H522 lung = system: NCI-H522 lung
HOP-92 NSCLC = system: HOP-92 NSCLC
OVCAR-4 ovarian = system: OVCAR-4 ovarian
OVCAR-3 ovarian = system: OVCAR-3 ovarian
NCI-H460 lung = system: NCI-H460 lung
MALME-3M melanoma = system: MALME-3M melanoma
MDA-MB-435 = system: MDA-MB-435
HS 578T breast = system: HS 578T breast
A549 NSCLC = system: A549 NSCLC
HCC-2998 colon = system: HCC-2998 colon
SNB-19 CNS = system: SNB-19 CNS
RXF 393 renal = system: RXF 393 renal
SW-620 colon = system: SW-620 colon
MOLT-4 leukemia = system: MOLT-4 leukemia
786-0 renal = system: 786-0 renal
RPMI-8226 leukemia = system: RPMI-8226 leukemia
OVCAR-8 ovarian = system: OVCAR-8 ovarian
TK-10 renal = system: TK-10 renal
OVCAR-5 ovarian = system: OVCAR-5 ovarian
SK-MEL-5 melanoma = system: SK-MEL-5 melanoma
NCI-H226 lung = system: NCI-H226 lung
PC-3 prostate = system: PC-3 prostate
BT-549 breast = system: BT-549 breast
NCI-H23 lung = system: NCI-H23 lung
HCT-116 colon = system: HCT-116 colon
IGROV1 ovarian = system: IGROV1 ovarian
COLO 205 colon = system: COLO 205 colon

CS(=O)(=O)Nc1cc(-c2ccc3ncc(C#N)c(NCc4ccccc4)c3c2)cnc1Cl
GI50 (SN12C renal): 233 nM | TGI (SN12C renal): > 49500 nM | GI50 (DU-145 prostate): 322 nM | TGI (DU-145 prostate): 19200 nM | GI50 (MDA-MB-231 breast): 331 nM | TGI (MDA-MB-231 breast): 6370 nM | GI50 (HOP-62 NSCLC): 270 nM | TGI (HOP-62 NSCLC): 9120 nM | GI50 (UACC-62 melanoma): 76.4 nM | TGI (UACC-62 melanoma): 815 nM | GI50 (A498 renal): 101 nM | TGI (A498 renal): 498 nM | GI50 (HT29 colon): 463 nM | TGI (HT29 colon): 25000 nM | GI50 (EKVX NSCLC): 340 nM | TGI (EKVX NSCLC): 3860 nM | GI50 (U251 CNS): 218 nM | TGI (U251 CNS): 12700 nM | GI50 (SK-MEL-28 melanoma): 175 nM | TGI (SK-MEL-28 melanoma): 10200 nM | GI50 (K-562 leukemia): 311 nM | TGI (K-562 leukemia): > 100000 nM | GI50 (M14 melanoma): 178 nM | TGI (M14 melanoma): 10800 nM | GI50 (HL-60(TB) leukemia): 294 nM | TGI (HL-60(TB) leukemia): 7520 nM | GI50 (SF-539 CNS): 205 nM | TGI (SF-539 CNS): 1700 nM | GI50 (CAKI-1 renal): 186 nM | TGI (CAKI-1 renal): 2370 nM | GI50 (KM12 colon): 431 nM | TGI (KM12 colon): 4980 nM | GI50 (ACHN renal): 434 nM | TGI (ACHN renal): > 46300 nM | GI50 (SF-268 CNS): 197 nM | TGI (SF-268 CNS): 5220 nM | GI50 (SF-295 CNS): 192 nM | TGI (SF-295 CNS): 1740 nM | GI50 (SNB-75 CNS): 38.2 nM | TGI (SNB-75 CNS): 334 nM | GI50 (T-47D breast): 52.1 nM | TGI (T-47D breast): 2670 nM | GI50 (UACC-257 melanoma): 327 nM | TGI (UACC-257 melanoma): 6320 nM | GI50 (HCT-15 colon): 268 nM | TGI (HCT-15 colon): 11400 nM | GI50 (SK-OV-3 ovarian): 259 nM | TGI (SK-OV-3 ovarian): 1610 nM | GI50 (UO-31 renal): 111 nM | TGI (UO-31 renal): 3170 nM | GI50 (SK-MEL-2 melanoma): 195 nM | TGI (SK-MEL-2 melanoma): 975 nM | GI50 (MCF7 breast): 63.7 nM | TGI (MCF7 breast): 3750 nM | GI50 (NCI/ADR-RES ovarian): 1700 nM | TGI (NCI/ADR-RES ovarian): 28900 nM | GI50 (LOX IMVI melanoma): 214 nM | TGI (LOX IMVI melanoma): 1110 nM | GI50 (SR leukemia): 164 nM | TGI (SR leukemia): 7910 nM | GI50 (CCRF-CEM leukemia): 117 nM | TGI (CCRF-CEM leukemia): 15200 nM | GI50 (NCI-H522 lung): 281 nM | TGI (NCI-H522 lung): 13900 nM | GI50 (HOP-92 NSCLC): 33.7 nM | TGI (HOP-92 NSCLC): 399 nM | GI50 (OVCAR-4 ovarian): 325 nM | TGI (OVCAR-4 ovarian): > 42700 nM | GI50 (OVCAR-3 ovarian): 254 nM | TGI (OVCAR-3 ovarian): 2790 nM | GI50 (NCI-H460 lung): 371 nM | TGI (NCI-H460 lung): > 100000 nM | GI50 (MALME-3M melanoma): 79 nM | TGI (MALME-3M melanoma): 626 nM | GI50 (MDA-MB-435): 299 nM | TGI (MDA-MB-435): 8270 nM | GI50 (HS 578T breast): 65 nM | TGI (HS 578T breast): 521 nM | GI50 (A549 NSCLC): 500 nM | TGI (A549 NSCLC): 7740 nM | GI50 (HCC-2998 colon): 325 nM | TGI (HCC-2998 colon): 6420 nM | GI50 (SNB-19 CNS): 268 nM | TGI (SNB-19 CNS): 11600 nM | GI50 (RXF 393 renal): 38.4 nM | TGI (RXF 393 renal): 435 nM | GI50 (SW-620 colon): 351 nM | TGI (SW-620 colon): > 36100 nM | GI50 (MOLT-4 leukemia): 177 nM | TGI (MOLT-4 leukemia): 3940 nM | GI50 (786-0 renal): 350 nM | TGI (786-0 renal): > 45400 nM | GI50 (RPMI-8226 leukemia): 212 nM | TGI (RPMI-8226 leukemia): 1070 nM | GI50 (OVCAR-8 ovarian): 364 nM | TGI (OVCAR-8 ovarian): > 39400 nM | GI50 (TK-10 renal): 190 nM | TGI (TK-10 renal): 1970 nM | GI50 (OVCAR-5 ovarian): 440 nM | TGI (OVCAR-5 ovarian): 21100 nM | GI50 (SK-MEL-5 melanoma): 146 nM | TGI (SK-MEL-5 melanoma): 344 nM | GI50 (NCI-H226 lung): 347 nM | TGI (NCI-H226 lung): 18000 nM | GI50 (PC-3 prostate): 158 nM | TGI (PC-3 prostate): 2750 nM | GI50 (BT-549 breast): 155 nM | TGI (BT-549 breast): 2040 nM | GI50 (NCI-H23 lung): 291 nM | TGI (NCI-H23 lung): 15600 nM | GI50 (HCT-116 colon): 334 nM | TGI (HCT-116 colon): 4360 nM | GI50 (IGROV1 ovarian): 89.6 nM | TGI (IGROV1 ovarian): 667 nM | GI50 (COLO 205 colon): 353 nM | TGI (COLO 205 colon): 2870 nM
